Data taken from PubChem BioAssay (NCI).
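Results reflect a 48-hour exposure of cells in 96-well plates to compound at five concentrations. GI50 = concentration required for 50% inhibition of growth. TGI denotes the concentration required for complete inhibition of growth.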

Tests used:
Test in all cases: NCI anticancer screen, dose series, 48 h
HOP-92 NSCLC = tested on: HOP-92 NSCLC
HOP-62 NSCLC = tested on: HOP-62 NSCLC
COLO 205 colon = tested on: COLO 205 colon
SF-295 CNS = tested on: SF-295 CNS
RXF 393 renal = tested on: RXF 393 renal
ACHN renal = tested on: ACHN renal
SK-MEL-5 melanoma = tested on: SK-MEL-5 melanoma
HCT-15 colon = tested on: HCT-15 colon
MDA-MB-435 = tested on: MDA-MB-435
T-47D breast = tested on: T-47D breast

Compound | TGI (HOP-92 NSCLC) [µM] | TGI (HOP-62 NSCLC) [µM] | TGI (COLO 205 colon) [µM] | TGI (SF-295 CNS) [µM] | TGI (RXF 393 renal) [µM] | TGI (ACHN renal) [µM] | TGI (SK-MEL-5 melanoma) [µM] | TGI (HCT-15 colon) [µM] | GI50 (SK-MEL-5 melanoma) [µM] | GI50 (HOP-62 NSCLC) [µM] | GI50 (MDA-MB-435) [µM] | TGI (MDA-MB-435) [µM] | GI50 (T-47D breast) [µM] | TGI (T-47D breast) [µM] | GI50 (COLO 205 colon) [µM] | GI50 (SF-295 CNS) [µM] | GI50 (HCT-15 colon) [µM] | GI50 (RXF 393 renal) [µM] | GI50 (ACHN renal) [µM] | GI50 (HOP-92 NSCLC) [µM]
O=C1CC(CC(=O)C2CCCCC2=O)C(=O)N1 (centres undefined) | > 100 | > 100 | > 100 | > 100 | > 100 | > 100 | – | – | – | – | – | – | – | – | – | – | – | – | – | –
IC[P+]1(c2ccccc2)CCCC1 | – | > 100 | 31 | > 100 | > 100 | > 100 | 83.1 | > 100 | – | – | – | – | – | – | – | – | – | – | – | –
Cc1nc(C(N)=O)c(N)n1CCN1CCN(C(=O)CCCCCCCCCCNC2N=CNc3nc[nH]c32)CC1 (centres undefined) | > 100 | > 100 | > 100 | > 100 | – | > 100 | – | > 100 | – | – | – | – | – | – | – | – | – | – | – | –
c1ccc(C2ONC3=NCCN32)cc1 (centres undefined) | – | > 100 | > 100 | > 100 | > 100 | > 100 | 49.6 | > 100 | 0.995 | 49.4 | 93.9 | > 100 | 44 | > 100 | 41.6 | 48.3 | 16.9 | 82.9 | 41.9 | –
O=C(COc1ccccc1Cl)N1N=C(c2ccc(Cl)cc2)CC1(O)c1ccccc1 (centres undefined) | > 100 | > 100 | > 100 | > 100 | – | > 100 | – | > 100 | – | – | – | – | – | – | – | – | – | – | – | –
O=c1cc(-c2cccs2)[nH]c2cc3c(cc12)OCO3 | > 100 | 39.4 | > 100 | > 49 | 8.38 | > 100 | > 31.9 | > 100 | – | – | – | – | – | – | – | – | – | – | – | –
COc1ccc(C2=Nn3c(nnc3-c3cc(Cl)cc(Cl)c3Cl)SC2)cc1 | > 100 | > 36.2 | 7.15 | 1.4 | – | > 100 | – | > 100 | 0.273 | 0.478 | 0.163 | 0.588 | – | – | 0.792 | 0.0576 | 0.52 | – | 0.859 | > 33.9
CC(=O)c1c(O)c(C)c(O)c(Cc2c(O)c3c(c(C(=O)/C=C/c4ccccc4)c2O)OC(C)(C)C=C3)c1O | 6.08 | – | 3.95 | 11.6 | – | 34.3 | 5.75 | 14.3 | – | – | – | – | – | 7.89 | – | – | – | – | – | –
COC(=O)c1sc(C(=O)OC)c2c1CS(=O)C2 | > 100 | – | > 100 | > 100 | > 100 | – | > 100 | > 100 | – | – | – | – | – | – | – | – | – | – | – | –
O=C1C[C@H]2CCCN2[C@@H](c2ccccc2)C1 | > 100 | > 100 | > 100 | > 100 | > 100 | > 100 | > 100 | > 100 | – | – | – | – | – | – | – | – | – | – | – | –
CCOC(=O)Cc1nc2ccc3c(c2[nH]c1=O)C(=O)c1ccccc1C3=O | > 100 | > 100 | > 100 | – | 63.1 | > 100 | > 100 | > 100 | – | – | – | – | – | – | – | – | – | – | – | –
CCc1cccc(C)c1NS(=O)(=O)c1ccccc1 | – | > 100 | – | > 100 | > 100 | > 100 | > 100 | > 100 | – | – | – | – | – | – | – | – | – | – | – | –
O=C(O)CCNS(=O)(=O)c1ccc(NC(=O)c2ccccc2)cc1 | > 100 | – | > 100 | > 100 | > 100 | > 100 | > 100 | > 100 | – | – | – | – | – | – | – | – | – | – | – | –
Cn1ccnc1CCc1c(Cl)cccc1Cl | > 100 | > 100 | > 100 | > 100 | > 100 | > 100 | > 100 | > 100 | – | – | – | – | – | – | – | – | – | – | – | –
O=C1C2C3C=C4c5ccccc5N(c5ccccc5)C4(C2C(=O)N1c1ccccc1)C1C(=O)N(c2ccccc2)C(=O)C31 (centres undefined) | 6.29 | > 100 | > 100 | > 100 | – | > 100 | – | > 100 | – | – | – | – | – | – | – | – | – | – | – | –
Cn1c(=O)c(N=Nc2c(=O)n(C)c(=O)n3c2[nH]c2ccccc23)c2[nH]c3ccccc3n2c1=O | > 100 | > 100 | > 100 | > 100 | > 100 | > 100 | > 100 | > 100 | – | – | – | – | – | – | – | – | – | – | – | –
O=C(N/N=C/c1ccccc1O)N/N=C/c1ccccc1O | > 100 | > 100 | > 100 | > 100 | > 100 | > 100 | – | > 100 | – | – | – | – | – | – | – | – | – | – | – | –
C=C(c1ccccc1)C1(O)CCCCC1N (centres undefined) | > 100 | > 100 | > 100 | > 100 | > 100 | > 100 | > 100 | > 100 | – | – | – | – | – | – | – | – | – | – | – | –
c1cc[c]([Sn][c]2ccccc2)cc1 | 47.5 | > 100 | 59.4 | 69.7 | 36.5 | 69.8 | 31.9 | 41 | 16.8 | 53.1 | – | – | – | – | 24.3 | 27.8 | 20.5 | 12.4 | 27.2 | 19
O=C(Oc1cccnc1)c1cccnc1Nc1ccnc(C(F)(F)F)c1 | > 100 | 36 | 72.4 | > 100 | 80.4 | 66 | 63.4 | > 100 | 6.99 | 13.7 | – | – | 36.3 | > 100 | 27.4 | 44.4 | 27.2 | 21.3 | 21.7 | > 100
O=C(NCCCOC(=O)CCCCCCCCC(=O)OCCCNC(=O)NC(=O)c1c[nH]c(=O)[nH]c1=O)NC(=O)c1c[nH]c(=O)[nH]c1=O | > 100 | > 100 | > 100 | > 100 | – | > 100 | > 100 | > 100 | – | – | – | – | – | – | – | – | – | – | – | –
COc1cc(Cl)cc(=O)c(O)c1OC | – | > 100 | > 81.2 | > 100 | > 100 | > 100 | – | > 100 | – | – | – | – | – | – | – | – | – | – | – | –
Clc1ccc(-c2cn3ccnc3c(-c3ccc(Cl)cc3)n2)cc1 | > 100 | > 100 | > 100 | 91.7 | > 100 | 52.3 | 43.5 | 30.9 | 16.6 | 31.4 | 2.79 | 8.07 | – | – | 27.6 | 11.1 | 3.38 | 3.57 | 13 | 15.1
